Holding throughout (assay): Post-emergence efficacy, glasshouse spray test
Common to all, as to type: in vivo

Test [1] has as its system Digitaria sanguinalis (DIGSA). The following applies: Digitaria sanguinalis, post-emergence, 312 h; Application Rate 500 g/Ha; evaluated after 13 days; read-out: Control of weed species after post-emergence application, DIGSA (100=total damage to plant; 0=no damage to plant). The procedure: (§1) Seeds of a variety of test species were sown in standard soil in pots. After cultivation for 14 days (post-emergence) under controlled conditions in a glasshouse (at 24/16° C. day/night; 14 hours light; 65% humidity), the plants were sprayed with an aqueous spray solution derived from the dissolution of the technical active ingredient formula (I) in a small amount of acetone and a special solvent and emulsifier mixture referred to as IF50 (11.12% Emulsogen EL360 TM+44.44% N-methyl pyrrolidone+44.44% Dowanol DPM glycolether), to create a 50 g/l solution which was then diluted to required concentration using 0.25% or 1% Empicol ESC70 (Sodium lauryl ether sulphate)+1% ammonium sulphate as diluent. The test plants were then grown in a glasshouse under controlled conditions (at 24/16° C., day/night; 14 hours light; 65% humidity) and watered twice daily. After 13 days the test was evaluated (100=total damage to plant; 0=no damage to plant).
(§2) Ipomoea hederacea (IPOHE), Euphorbia heterophylla (EPHHL), Chenopodium album (CHEAL), Amaranthus palmeri (AMAPA), Lolium perenne (LOLPE), Digitaria sanguinalis (DIGSA), Eleusine indica (ELEIN), Echinochloa crus-galli (ECHCG), Setaia fabei (SETFA)

The subject of test [2] is Chenopodium album (CHEAL). Particulars: Chenopodium album, post-emergence, 312 h; Application Rate 500 g/Ha; evaluated after 13 days; read-out: Control of weed species after post-emergence application, CHEAL (100=total damage to plant; 0=no damage to plant). How it is done: as §1, §2
Test [3] concerns Setaia fabei (SETFA). Particulars: Setaria faberi, post-emergence, 312 h; Application Rate 500 g/Ha; evaluated after 13 days; read-out: Control of weed species after post-emergence application, SETFA (100=total damage to plant; 0=no damage to plant). The procedure:
as §1, §2

Test [4] concerns Amaranthus palmeri (AMAPA). Particulars: Amaranthus palmeri, post-emergence, 312 h; Application Rate 500 g/Ha; evaluated after 13 days; read-out: Control of weed species after post-emergence application, AMAPA (100=total damage to plant; 0=no damage to plant). How it is done:
as §1, §2

In test [5] the test system is Lolium perenne (LOLPE). Particulars: Lolium perenne, post-emergence, 312 h; Application Rate 500 g/Ha; evaluated after 13 days; read-out: Control of weed species after post-emergence application, LOLPE (100=total damage to plant; 0=no damage to plant). The procedure:
as §1, §2

Test [6] deals with Ipomoea hederacea (IPOHE). Particulars: Ipomoea hederacea, post-emergence, 312 h; Application Rate 500 g/Ha; evaluated after 13 days; read-out: Control of weed species after post-emergence application, IPOHE (100=total damage to plant; 0=no damage to plant). How it is done: as §1, §2
In test [7] the test system is Echinochloa crus-galli (ECHCG). The following applies: Echinochloa crus-galli, post-emergence, 312 h; Application Rate 500 g/Ha; evaluated after 13 days; read-out: Control of weed species after post-emergence application, ECHCG (100=total damage to plant; 0=no damage to plant). The procedure:
as §1, §2

Test [8] deals with Euphorbia heterophylla (EPHHL). The following applies: Euphorbia heterophylla, post-emergence, 312 h; Application Rate 500 g/Ha; evaluated after 13 days; read-out: Control of weed species after post-emergence application, EPHHL (100=total damage to plant; 0=no damage to plant). The procedure:
as §1, §2

In test [9] the test system is Eleusine indica (ELEIN). The following applies: Eleusine indica, post-emergence, 312 h; Application Rate 500 g/Ha; evaluated after 13 days; read-out: Control of weed species after post-emergence application, ELEIN (100=total damage to plant; 0=no damage to plant). How it is done: as §1, §2

Counter-ions that a name gives are not always drawn.

This is an account of results in patent US20210053957A1, “HERBICIDAL COMPOUNDS” (SYNGENTA PARTICIPATIONS AG, priority 2018, published 2021).

With `Cn1nccc1-c1cc[n+](CCCS(=O)(=O)[O-])nc1` [Compound A4], the pest or weed control at 500 g/ha in test [1] worked out at 30%; in test [2], 30%; in [3] it was 20%; in test [4], 10%; in test [5] it was 0%; in test [6], 10%. Besides, the pest or weed control at 500 g/ha in test [7] amounted to 20%; in test [8], 40%; in [9] it was 10%.
Consider `O=S(=O)([O-])CC[n+]1ccc(-c2ccns2)cn1` [Compound A5], for which the pest or weed control at 500 g/ha was 60% in test [1]; 100% in [2]; 60% in test [3]; 100% in [4]; 100% in test [5]; 70% in test [6]. The pest or weed control at 500 g/ha in [7] was 70%; in test [8], 100%; in test [9] it was 80%.
With `Cn1ncc(-c2cc[n+](CCS(=O)(=O)[O-])nc2)n1` [Compound A6], the pest or weed control at 500 g/ha in [1] turned out to be 60%; in [2] it was 40%; in test [3], 70%; in test [4] it was 90%; in test [5], 60%; in [6], 10%. Moreover, the pest or weed control at 500 g/ha in [7] was 60%; in [8], 20%; in test [9], 60%.
With `O=S(=O)([O-])CCC[n+]1ccc(-c2nnco2)cn1` [Compound A7], the pest or weed control at 500 g/ha in [1] is 30%; in [2], 0%; in [3], 10%; in [4], 0%; in [5] it was 10%; in test [6], 10%. Moreover, the pest or weed control at 500 g/ha in test [7] was 10%; in test [8] it was 20%; in [9] it was 20%.
As to `O=S(=O)([O-])OCC[n+]1ccc(-c2ncno2)cn1` [Compound A8, 2-[4-(1,2,4-oxadiazol-5-yl)pyridazin-1-ium-1-yl]ethyl sulfate], the pest or weed control at 500 g/ha in test [1] turned out to be 50%; in test [2], 10%; in test [3], 40%; in [4], 10%; in [5], 10%; in test [6], 30%. Also, the pest or weed control at 500 g/ha in test [7] is 50%; in [8] it was 30%; in test [9], 20%.
On to `O=S(=O)([O-])CC[n+]1ccc(-c2ncns2)cn1` [Compound A9], for which the pest or weed control at 500 g/ha in test [1] turned out to be 70%; in [2] it was 70%; in [3] it was 60%; in test [4], 90%; in test [5], 30%; in [6], 80%. Also, the pest or weed control at 500 g/ha in test [7] was determined as 60%; in test [8] it was 90%; in [9] it was 80%.
As to `Cc1nsc(-c2cc[n+](CCS(=O)(=O)[O-])nc2)n1` [Compound A10], the pest or weed control at 500 g/ha amounted to 50% in test [1]; 80% in [2]; 60% in [3]; 60% in test [4]; 60% in test [5]; 50% in test [6]. Besides, the pest or weed control at 500 g/ha in test [7] was 30%; in [8], 60%; in test [9], 60%.
With `Cn1nnc(-c2cc[n+](CCS(=O)(=O)O)nc2)n1` [Compound A11], the pest or weed control at 500 g/ha was 90% in test [1]; 90% in test [2]; 100% in test [3]; 100% in test [4]; 80% in test [5]; 60% in [6]. Further, the pest or weed control at 500 g/ha in [7], in test [8] and in [9] was 100% in each case.
As for `Cn1nnnc1-c1cc[n+](CCS(=O)(=O)O)nc1` [Compound A12], the pest or weed control at 500 g/ha in test [1] was 60%; in [2] it was 30%; in [3], 40%; in test [4], 60%; in test [5], 70%; in [6] it was 20%. Also, the pest or weed control at 500 g/ha came to 30% in test [7], 20% in [8] and 30% in test [9].
On to `Cc1csc(-c2cc[n+](CCS(=O)(=O)[O-])nc2)n1` [Compound A13], for which the pest or weed control at 500 g/ha in [1] is 30%; in test [2] it was 70%; in test [3], 60%; in [4], 90%; in [5], 60%; in test [6], 40%. The values for the pest or weed control at 500 g/ha in test [7], in test [8] and in [9] were 40%, 90% and 80%, respectively.
With `Cc1nc(-c2cc[n+](CCS(=O)(=O)[O-])nc2)oc1C` [Compound A14], the pest or weed control at 500 g/ha in test [1] was 50%; in [2] it was 40%; in [3] it was 50%; in test [4] it was 100%; in [5], 40%; in [6], 40%. Also, the pest or weed control at 500 g/ha in [7] was found to be 40%; in test [8], 50%; in [9] it was 70%.
With `Cc1cnc(-c2cc[n+](CCC(=O)O)nc2)o1` [Compound A15, 3-[4-(5-methyloxazol-2-yl)pyridazin-1-ium-1-yl]propanoic acid; 2,2,2-trifluoroacetate], the pest or weed control at 500 g/ha in test [1] was found to be 80%; in [2], 80%; in [3] it was 70%; in test [4], 100%; in test [5], 60%; in [6], 30%. Further, the results for the pest or weed control at 500 g/ha in test [7], in test [8] and in test [9] were 80%, 100% and 100%, respectively.
For the molecule `Cn1ncnc1-c1cc[n+](CCS(=O)(=O)[O-])nc1` [Compound A16], the pest or weed control at 500 g/ha in test [1] came out at 70%; in test [2], 100%; in [3], 80%; in test [4], 100%; in test [5], 90%; in test [6] it was 80%. Moreover, the pest or weed control at 500 g/ha in test [7] was 80%; in test [8], 90%; in test [9], 80%.
